Source: patent US20120184536A1, “COMPOSITIONS COMPRISING SPECIFIC UGT INHIBITORS AND METHODS OF USE THEREOF” (The Board of Trustees of the University of Arkansas, priority 2009, published 2012)
Where two headings read alike, the source gives them in different places.

Columns and labels:
[1] = target: T1, UGT2B7 (Homo sapiens, UniProt P16662)
T1 sequence (P16662 24-529): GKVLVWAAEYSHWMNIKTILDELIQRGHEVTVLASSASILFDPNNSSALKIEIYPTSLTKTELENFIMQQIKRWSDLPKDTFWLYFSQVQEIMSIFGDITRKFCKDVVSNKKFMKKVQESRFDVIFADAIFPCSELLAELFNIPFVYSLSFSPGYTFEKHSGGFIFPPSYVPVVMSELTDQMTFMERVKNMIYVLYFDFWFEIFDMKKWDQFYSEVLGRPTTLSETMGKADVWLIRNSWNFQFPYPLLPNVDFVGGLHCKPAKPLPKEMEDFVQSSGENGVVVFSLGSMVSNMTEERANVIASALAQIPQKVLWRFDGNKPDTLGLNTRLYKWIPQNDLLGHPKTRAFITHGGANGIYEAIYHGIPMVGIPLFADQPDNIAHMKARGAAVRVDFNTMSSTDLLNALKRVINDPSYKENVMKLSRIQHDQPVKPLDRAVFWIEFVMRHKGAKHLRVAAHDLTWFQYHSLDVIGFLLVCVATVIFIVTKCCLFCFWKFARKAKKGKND
Protocol: (§5) Recombinant UGT Isoform Incubations—Recombinant human UGT2B7 was produced in HEK239 cells as previously described (6). […] For inhibition assays, recombinant UGT membrane protein was incubated in reaction buffer with substrate, inhibitor, and co-substrate as previously described (6, 9).
(§6) IC50 assays—UGT2B7 or 1A10 were incubated with fixed concentrations of each substrate and co-substrate and increasing concentrations of inhibitor.
(§7) The results of these experiments were analyzed and apparent kinetic and inhibition parameters were determined using Prism 4 software (GraphPad, San Diego, Calif.) and DynaFit (BioKin, Watertown, Mass.). TLC and HPLC Analysis—For inhibition assays using all substrates other than 7-OH-warfarin, aliquots (60 μl) of each incubation were analyzed using thin layer chromatography (TLC) as previously described (3). For inhibition assays using 7-OH-warfarin as a substrate, samples were analyzed using HPLC as described previously (10). Primary standards for the 7-OH-warfarin glucuronide were not available; therefore, product concentrations were estimated using the external standard response for the 7-OH-warfarin substrate.

[2] = target: T2, UGT1A6 (Homo sapiens, UniProt P19224); experiment: Screening assay, 4-MU glucuronidation by UGT1A6; assay type: biochemical; details: 250 μM 4-MU; 0, 50 or 200 μM inhibitor; FIG. 2 / FIG. 10
T2 sequence (P19224 27-532): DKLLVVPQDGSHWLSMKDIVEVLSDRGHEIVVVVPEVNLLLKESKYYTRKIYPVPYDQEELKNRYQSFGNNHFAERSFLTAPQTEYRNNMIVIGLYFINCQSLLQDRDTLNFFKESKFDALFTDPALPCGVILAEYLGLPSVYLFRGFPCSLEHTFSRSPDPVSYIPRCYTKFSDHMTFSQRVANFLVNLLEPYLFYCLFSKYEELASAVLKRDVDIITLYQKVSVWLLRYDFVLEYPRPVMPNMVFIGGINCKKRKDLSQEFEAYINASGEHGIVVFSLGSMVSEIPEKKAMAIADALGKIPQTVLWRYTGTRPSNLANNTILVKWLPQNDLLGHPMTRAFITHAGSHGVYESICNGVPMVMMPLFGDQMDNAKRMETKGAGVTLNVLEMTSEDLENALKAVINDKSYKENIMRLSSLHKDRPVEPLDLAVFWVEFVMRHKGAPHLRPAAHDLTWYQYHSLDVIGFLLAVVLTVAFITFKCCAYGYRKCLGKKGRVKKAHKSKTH
Protocol: (§1) FIG. 2 depicts the effect of PP inhibitors on the glucuronidation by UGT1A6, 1A8, 1A10, and 2B7. Each enzyme was incubated with 250 μM of 4-MU or linoleic acid and 0 μM (black), 50 μM (grey), or 200 μM (white) of each inhibitor. Activities are normalized to percent maximal activity.
(§2) FIG. 10 depicts the effect of PP inhibitors on the glucuronidation of 4-MU by UGT1A6, 1A8, and 1A10. Each enzyme was incubated with 250 μM 4-MU and 0, 50, or 200 μM concentrations of each inhibitor. Activities are normalized to percent maximal activity.
(§3) Synthesis of inhibitors was described previously (2).
(§4) Recombinant UGT Isoform Incubations—Recombinant human UGT1A10 and it mutants were produced in baculovirus-infected insect cells as previously described (6, 7). Synthesis of inhibitors was described previously (2). For inhibition assays, UGT recombinant membrane protein (5 μg) was incubated in reaction buffer ([…] Tris-HCl (pH 7.4)/5 mM MgCl2/5 mM saccharolactone) and 2% DMSO with substrate, inhibitor and co-substrate, UDP-GlcUA, in a total volume of 30 μl. Substrates were added in DMSO, and controls were run with each assay. No additional detergents or other activators were used in the incubations. Reactions were started by the addition of co-substrate and incubated at 37° C. (90 min for 8-hydroxywarfarin; 30 min for 4-MU; 30 min for E2). […]

[3] = target: T1, UGT2B7; experiment: IC50 assays, inhibition of UGT2B7 glucuronidation (Example 1); details: read-out: IC50 (Substrate), linoleic acid ~2 x Km, co-substrate in >5 fold excess
Protocol: as §5, §6, §7

[4] = target: T3, UGT1A10 (Homo sapiens, UniProt Q9HAW8); experiment: Screening assay, 4-MU glucuronidation by UGT1A10; assay type: biochemical; set-up: His; made in house; host or cells: baculovirus-infected Sf9 insect cells; details: 250 μM 4-MU; 0, 50 or 200 μM inhibitor; FIG. 2 / FIG. 10
T3 sequence (Q9HAW8 26-530): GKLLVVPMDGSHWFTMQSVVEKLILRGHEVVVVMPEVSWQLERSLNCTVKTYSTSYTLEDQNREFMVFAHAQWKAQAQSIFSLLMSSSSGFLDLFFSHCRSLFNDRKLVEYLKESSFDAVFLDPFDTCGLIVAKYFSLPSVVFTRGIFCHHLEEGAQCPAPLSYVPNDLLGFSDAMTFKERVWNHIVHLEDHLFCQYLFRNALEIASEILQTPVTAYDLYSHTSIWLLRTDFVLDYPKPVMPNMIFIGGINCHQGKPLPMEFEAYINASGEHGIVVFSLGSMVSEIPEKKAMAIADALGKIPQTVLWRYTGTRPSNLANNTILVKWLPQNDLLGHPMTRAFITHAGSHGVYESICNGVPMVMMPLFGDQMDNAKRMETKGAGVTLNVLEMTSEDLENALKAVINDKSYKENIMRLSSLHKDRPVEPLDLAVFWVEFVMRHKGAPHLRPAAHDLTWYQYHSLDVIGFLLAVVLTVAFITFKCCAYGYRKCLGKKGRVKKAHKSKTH
Protocol: as §1, §2, §3, §4

[5] = target: T1, UGT2B7; experiment: Screening assay, linoleic acid glucuronidation by UGT2B7; assay type: biochemical; set-up: made in house; host or cells: HEK239 cells (so in the source); details: 250 μM linoleic acid; 0, 50 or 200 μM inhibitor; FIG. 2
Protocol: as §1, §3

[6] = target: T4, UGT1A8 (Homo sapiens, UniProt Q9HAW9); experiment: Screening assay, 4-MU glucuronidation by UGT1A8; assay type: biochemical; details: 250 μM 4-MU; 0, 50 or 200 μM inhibitor; FIG. 2 / FIG. 10
T4 sequence (Q9HAW9 26-530): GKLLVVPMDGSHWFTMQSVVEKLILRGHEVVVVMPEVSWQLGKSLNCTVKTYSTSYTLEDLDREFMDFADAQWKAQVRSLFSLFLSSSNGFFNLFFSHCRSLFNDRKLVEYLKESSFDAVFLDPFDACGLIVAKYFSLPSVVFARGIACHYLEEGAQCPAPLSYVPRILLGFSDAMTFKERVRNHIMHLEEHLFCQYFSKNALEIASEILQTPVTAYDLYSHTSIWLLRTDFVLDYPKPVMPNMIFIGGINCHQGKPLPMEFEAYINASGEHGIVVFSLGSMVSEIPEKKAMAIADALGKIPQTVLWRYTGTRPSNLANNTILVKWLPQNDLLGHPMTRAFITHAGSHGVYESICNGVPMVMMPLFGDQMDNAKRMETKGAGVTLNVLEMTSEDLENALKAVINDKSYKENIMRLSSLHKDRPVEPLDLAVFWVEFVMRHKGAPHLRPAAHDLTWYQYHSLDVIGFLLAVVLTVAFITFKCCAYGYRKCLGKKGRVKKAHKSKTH
Protocol: as §1, §2, §3, §4

[7] = target: T2, UGT1A6; details: cited from earlier work; for inhibition type toward UDP-GlcUA / inhibition type with 4-MU: 4-MU glucuronidation
[8] = target: T1, UGT2B7; experiment: Ki assays / kinetics and inhibition type, UGT2B7 (Example 1); details: human
Protocol: (§8) Recombinant UGT Isoform Incubations—Recombinant human UGT2B7 was produced in HEK239 cells as previously described (6). UGT1A10 was produced as a His-tagged protein in baculovirus-infected Sf9 insect cells as previously described (7, 8). […] For inhibition assays, recombinant UGT membrane protein was incubated in reaction buffer with substrate, inhibitor, and co-substrate as previously described (6, 9).
(§9) Ki assays—UGT2B7 or 1A10 were incubated with a range of at least four different concentrations of inhibitor using varying concentrations of substrate (Ki(substrate)) with a fixed saturating concentration of cosubstrate or with varying concentrations of co-substrate (Ki(UDP-GlcUA)) and a fixed saturating concentration of substrate (FIG. 4).
as §7

[9] = target: T3, UGT1A10; experiment: Ki assays / kinetics and inhibition type, UGT1A10 (Example 2)
Protocol: Recombinant UGT Isoform Incubations—Recombinant human UGT1A10 and it mutants were produced in baculovirus-infected insect cells as previously described (6, 7). Synthesis of inhibitors was described previously (2). For inhibition assays, UGT recombinant membrane protein (5 μg) was incubated in reaction buffer ([…] Tris-HCl (pH 7.4)/5 mM MgCl2/5 mM saccharolactone) and 2% DMSO with substrate, inhibitor and co-substrate, UDP-GlcUA, in a total volume of 30 μl. Substrates were added in DMSO, and controls were run with each assay. No additional detergents or other activators were used in the incubations. Reactions were started by the addition of co-substrate and incubated at 37° C. (90 min for 8-hydroxywarfarin; 30 min for 4-MU; 30 min for E2). […] Reactions were stopped by addition of 40 μl of ethanol, and all incubations were performed in duplicate.
TLC Analysis—For inhibition assays using 4-MU, E2, and 8-OH warfarin as substrates, aliquots (60 μl) of each sample were analyzed using thin layer chromatography (TLC) as described previously (3).
Each sample was centrifuged at 14,000 rpm for 8 min to spin down the protein, and 60 μl of the supernatant was analyzed by HPLC as described previously (8).

[10] = target: T3, UGT1A10; experiment: Ki assays / kinetics and inhibition type, UGT1A10 (Example 1); details: read-out: Km (Substrate), Km of the aglycone substrate
Protocol: as §8, §9, §7

[11] = substrate: O=[N+]([O-])c1ccc(O)cc1; experiment: purified protein, by the assay type; details: other: UGT2B7; Km of the aglycone substrate
Protocol: as §8, §9, §7

[12] = substrate: C[C@]12CC[C@@H](O)C[C@@H]1CC[C@@H]1[C@@H]2CC[C@]2(C)C(=O)CC[C@@H]12; experiment: purified protein, by the assay type; details: other: UGT2B7; Km of the aglycone substrate
[13] = read-out: Km (Substrate), UGT1A10, Km of the aglycone substrate, Example 2

CCCCCCCCCC(=O)NC(COC(=O)NCC(=O)NCC1OC(n2ccc(=O)[nH]c2=O)C(O)C1O)C(O)c1ccccc1 (stereo not drawn) [PP36]
IC50 [1]: 210 µM
effect on glucuronidation of 4-MU by UGT1A6 [2]: least effect
IC50 [3]: 740 µM
effect on glucuronidation of 4-MU by UGT1A10 [4]: least effect
effect on glucuronidation of linoleic acid by UGT2B7 [5]: least effect
effect on glucuronidation of 4-MU by UGT1A8 [6]: least effect

CCCCCCCCCC(=O)NC(COC(=O)NS(=O)(=O)OCC1OC(n2ccc(=O)[nH]c2=O)C2OC(C)(C)OC12)C(O)c1ccccc1 (stereo not drawn) [PP37P]
inhibition type toward UDP-GlcUA [7]: competitive
inhibition type with 4-MU [7]: competitive
inhibition of 4-methylumbelliferone (4-MU) glucuronidation [7]: identified as inhibitors
effect on glucuronidation of 4-MU by UGT1A6 [2]: least effect
effect on glucuronidation of 4-MU by UGT1A10 [4]: least effect
effect on glucuronidation of linoleic acid by UGT2B7 [5]: least effect
effect on glucuronidation of 4-MU by UGT1A8 [6]: least effect

CCCCC/C=C\C/C=C\CCCCCCCC(=O)O [Linoleic Acid, reference compound]
Km [8]: 160 ± 20 µM

Cc1cc(=O)oc2cc(O)ccc12 [4-MU, 4-methylumbelliferone, reference compound]
Km [9, 13]: 91.1 ± 19 µM
Km [10]: 200 ± 20 µM

CCCCCCCCCC(=O)NC(COC(=O)NS(=O)(=O)OCC1OC(n2ccc(=O)[nH]c2=O)C(O)C1O)C(O)c1ccccc1 (stereo not drawn) [PP37]
inhibition type toward UDP-GlcUA [7]: competitive
inhibition type with 4-MU [7]: competitive
inhibition of 4-methylumbelliferone (4-MU) glucuronidation [7]: identified as inhibitors

CCCCCCCCCC(=O)NC(COC(=O)NS(=O)(=O)OCC1OC(n2ccc(=O)[nH]c2=O)C2OC(C)(C)OC12)Cc1ccccc1 (stereo not drawn) [PP50B]
inhibition type toward UDP-GlcUA [7]: competitive
inhibition type with 4-MU [7]: non-competitive
inhibition of 4-methylumbelliferone (4-MU) glucuronidation [7]: identified as inhibitors

CC(=O)CC(c1ccccc1)c1c(O)c2ccc(O)cc2oc1=O (stereo not drawn) [7-OH Warfarin, 7-hydroxywarfarin, reference compound]
Km [9, 13]: 497 ± 61 µM
Km [10]: 450 ± 40 µM

C[C@]12CC[C@@H]3c4ccc(O)cc4CC[C@H]3[C@@H]1CC[C@@H]2O [E2, reference compound]
Km [9]: 48.3 ± 9 µM
Km [10]: 46 ± 5 µM

CCCCCCCCCC(=O)NC(COC(=O)CS(=O)(=O)OCC1OC(n2ccc(=O)[nH]c2=O)C(O)C1O)Cc1ccccc1 (stereo not drawn) [PP56B]
inhibition type toward UDP-GlcUA [7]: competitive
inhibition type with 4-MU [7]: competitive
inhibition of 4-methylumbelliferone (4-MU) glucuronidation [7]: identified as inhibitors

CC(=O)CC(c1ccccc1)c1c(O)c2cccc(O)c2oc1=O (stereo not drawn) [8-OH Warfarin, 8-hydroxywarfarin, reference compound]
Km [9, 13]: 515 ± 17 µM
Km [10]: 510 ± 70 µM

B1: UGT2B7 (Homo sapiens) (protein)
chain: T1 sequence (P16662 24-529)
Km [11]: 760 ± 130 µM
Km [12]: 22 ± 2 µM
